Data published in patent US7820379B2, “Process for high throughput screening of CpG-based immuno-agonist/antagonist” (Coley Pharmaceutical GmbH, priority 2000, dated 2010).

Assays:
Assay type in all cases: cell-based
hTLR8 = molecular target: T1, hTLR8 (Homo sapiens, UniProt Q9NR97); assay: IL-8 production in 293 cells transiently transfected with hTLR8; conditions: 293 cells transfected with hTLR8; ODN 2 μM, LPS 100 ng/ml
T1 construct: codes for a protein of 1041 amino acids; expressed in transfected cells; host or cells: human 293 fibroblasts (ATCC CRL-1573), transient
T1 sequence (Q9NR97 27-1041): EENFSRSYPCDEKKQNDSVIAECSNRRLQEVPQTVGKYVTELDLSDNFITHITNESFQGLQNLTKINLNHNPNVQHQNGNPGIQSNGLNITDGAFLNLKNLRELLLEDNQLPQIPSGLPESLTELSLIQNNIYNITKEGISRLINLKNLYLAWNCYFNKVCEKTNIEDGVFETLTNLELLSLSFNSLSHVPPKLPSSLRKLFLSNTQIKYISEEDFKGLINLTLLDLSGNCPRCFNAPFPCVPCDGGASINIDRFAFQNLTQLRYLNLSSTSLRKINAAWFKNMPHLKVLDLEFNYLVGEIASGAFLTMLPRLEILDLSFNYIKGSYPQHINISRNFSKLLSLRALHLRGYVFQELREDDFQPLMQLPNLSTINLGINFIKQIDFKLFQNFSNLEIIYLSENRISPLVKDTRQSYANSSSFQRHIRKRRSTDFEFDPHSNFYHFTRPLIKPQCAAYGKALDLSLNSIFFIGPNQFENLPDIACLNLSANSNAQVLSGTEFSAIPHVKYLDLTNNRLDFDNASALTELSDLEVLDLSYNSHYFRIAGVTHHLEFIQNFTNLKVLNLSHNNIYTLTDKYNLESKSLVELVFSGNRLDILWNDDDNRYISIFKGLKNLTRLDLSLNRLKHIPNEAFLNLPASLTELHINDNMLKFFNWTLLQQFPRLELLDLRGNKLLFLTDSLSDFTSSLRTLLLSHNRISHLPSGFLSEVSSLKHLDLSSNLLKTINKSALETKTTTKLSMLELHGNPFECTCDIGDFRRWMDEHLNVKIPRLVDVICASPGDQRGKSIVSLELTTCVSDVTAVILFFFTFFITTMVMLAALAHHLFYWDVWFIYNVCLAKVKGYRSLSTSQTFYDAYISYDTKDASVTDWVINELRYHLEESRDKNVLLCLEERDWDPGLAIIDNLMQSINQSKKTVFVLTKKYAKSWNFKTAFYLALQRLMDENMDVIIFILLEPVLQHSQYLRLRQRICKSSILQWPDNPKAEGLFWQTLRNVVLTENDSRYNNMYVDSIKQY
Protocol: (§1) The cloned human TLR7 and human TLR8 cDNA (our result) were cloned into the expression vector pcDNA3.1 (−) from Invitrogen using the NotI site. Utilizing a “gain of function” assay, hTLR7 and hTLR8 expression vectors were transiently expressed in human 293 fibroblasts (ATCC, CRL-1573) using the calcium phosphate method. Activation was monitored by IL-8 production after stimulus with CpG-ODN (2006 or 1668, 2 μM) or LPS (100 ng/ml).

hTLR7 = molecular target: T2, hTLR7 (Homo sapiens, UniProt Q9NYK1); assay: IL-8 production in 293 cells transiently transfected with hTLR7; conditions: 293 cells transfected with hTLR7; ODN 2 μM, LPS 100 ng/ml
T2 construct: codes for a protein of 1049 amino acids; expressed in transfected cells; host or cells: human 293 fibroblasts (ATCC CRL-1573), transient
T2 sequence (Q9NYK1 27-1049): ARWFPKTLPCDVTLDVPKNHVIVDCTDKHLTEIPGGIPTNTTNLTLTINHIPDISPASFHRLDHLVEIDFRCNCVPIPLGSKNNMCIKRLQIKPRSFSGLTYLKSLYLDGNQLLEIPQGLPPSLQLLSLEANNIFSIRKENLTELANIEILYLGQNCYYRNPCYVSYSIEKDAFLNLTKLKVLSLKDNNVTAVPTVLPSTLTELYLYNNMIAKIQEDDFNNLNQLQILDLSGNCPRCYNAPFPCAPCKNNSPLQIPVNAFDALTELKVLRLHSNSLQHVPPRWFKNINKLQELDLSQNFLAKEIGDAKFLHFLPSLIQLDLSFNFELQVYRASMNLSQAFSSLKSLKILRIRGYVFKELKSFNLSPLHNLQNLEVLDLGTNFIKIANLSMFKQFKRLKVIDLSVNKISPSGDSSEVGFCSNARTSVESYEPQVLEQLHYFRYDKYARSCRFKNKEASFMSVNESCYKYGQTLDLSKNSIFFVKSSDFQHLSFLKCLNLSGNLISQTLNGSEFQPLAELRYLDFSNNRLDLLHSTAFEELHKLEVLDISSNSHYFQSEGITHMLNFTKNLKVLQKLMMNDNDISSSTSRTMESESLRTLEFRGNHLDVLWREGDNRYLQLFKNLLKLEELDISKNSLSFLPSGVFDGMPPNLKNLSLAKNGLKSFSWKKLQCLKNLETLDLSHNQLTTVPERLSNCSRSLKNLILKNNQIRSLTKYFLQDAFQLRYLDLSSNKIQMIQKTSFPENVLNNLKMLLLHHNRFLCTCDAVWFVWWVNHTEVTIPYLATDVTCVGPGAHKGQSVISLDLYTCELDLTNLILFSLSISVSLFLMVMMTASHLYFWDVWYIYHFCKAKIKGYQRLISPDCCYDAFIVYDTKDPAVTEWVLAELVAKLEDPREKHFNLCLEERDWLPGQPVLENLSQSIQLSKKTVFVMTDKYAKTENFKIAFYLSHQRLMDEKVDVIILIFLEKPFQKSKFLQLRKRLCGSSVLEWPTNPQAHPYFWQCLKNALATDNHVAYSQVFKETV
Protocol: as §1

[1] = tested on: Human peripheral blood mononuclear cells (PBMC); assay: IL-12 production in human PBMC; conditions: ODN titration, after 8 hours
Text: By iterative examination of the flanking sequences surrounding CG dinucleotides, CpG-motifs have been identified. Paradoxically, or by twist of nature, the human optimal CpG-motif, GTCGTT (SEQ ID NO:66), is different from the murine motif, GACGTT (SEQ ID NO:129). Human peripheral blood mononuclear cells (PBMC) (FIG. 10A) and murine splenocytes (FIG. 10B) were stimulated with ODN 2006 (filled circle, […], SEQ ID NO:112), ODN 2006-GC (open circle), ODN 1668 (filled triangle, […], SEQ ID NO:84) or ODN 1668-GC (open triangle, […], SEQ ID NO:85) at indicated concentrations and IL-12 production was monitored after 8 hours. […] It should also be noted that the Kac (concentration of half-maximal activation) of murine splenocytes for 1668 was greater than human PBMC for 2006 (compare FIG. 10A to FIG. 10B).

| Substance | activation monitored by IL-8 production (hTLR8) | activation monitored by IL-8 production (hTLR7) | IL-12 production [1] |
| --- | --- | --- | --- |
| TCCATGACGTTCCTGATGCT (listed as DNA, chemistry not fully specified) [ODN 1668] | None of the stimuli used activated | None of the stimuli used activated | much less effective |
| TCGTCGTTTTGTCGTTTTGTCGTT [ODN 2006] | None of the stimuli used activated | None of the stimuli used activated | induces IL-12 production |
| TCCATGAGCTTCCTGATGCT (listed as DNA, chemistry not fully specified) [ODN 1668-GC] | – | – | essentially negative |
| TGCTGCTTTTGTGCTTTTGTGCTT (listed as DNA, chemistry not fully specified) [ODN 2006-GC] | – | – | essentially negative |
| lipopolysaccharide [LPS] | None of the stimuli used activated | None of the stimuli used activated | – |
